Publication PMC6150693 (Journal of the American Chemical Society, 2017)

Target: T1, SBD2 (Lactococcus lactis, UniProt Q9CES5)
T1 sequence (Q9CES5 253-484 limits assumed): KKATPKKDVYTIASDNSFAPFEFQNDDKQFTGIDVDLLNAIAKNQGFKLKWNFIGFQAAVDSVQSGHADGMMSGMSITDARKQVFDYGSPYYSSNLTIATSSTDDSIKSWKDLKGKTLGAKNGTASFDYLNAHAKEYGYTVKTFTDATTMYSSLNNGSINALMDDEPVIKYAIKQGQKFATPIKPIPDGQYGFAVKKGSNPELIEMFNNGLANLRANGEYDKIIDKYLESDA
Assay: single-molecule ClyA nanopore current, relative closed population
Format: binding

**Q.** `NC(=O)CC[C@H](N)C(=O)O` [glutamine] was tested. Which Kd did it give?
**A.** 830 ± 100 nM
